According to ChEMBL document CHEMBL5036339, “Synthesis and biological evaluation of indole-based peptidomimetics as antibacterial agents against Gram-positive bacteria” (Eur J Med Chem, 2021):
Converted amounts (≈) assume the structure as drawn. The source made the active and inactive calls. The rule behind the calls is not given here.

Key:
J774.A1 [1] = experiment: Cytotoxicity against mouse J774.A1 cells assessed as reduction in cell viability at 25 ug/ml after 24 hrs by CCK8 assay; type: cell-based; settings: j774.a1, 24 h, at 25 µg/mL
[2] = Cytotoxicity against mouse NCTC clone 929 cells assessed as reduction in cell viability at 3.125 ug/ml after 24 hrs by CCK8 assay; type: cell-based; settings: nctc clone 929, 24 h, at 3.125 µg/mL
Staphylococcus aureus [3] = experiment: Antibacterial activity against Staphylococcus aureus ATCC29213 assessed as reduction in bacterial growth; type: functional
Staphylococcus aureus [4] = experiment: Antibacterial activity against methicillin-resistant Staphylococcus aureus N315 assessed as reduction in bacterial growth in presence of ferric salt; type: functional
Staphylococcus aureus [5] = experiment: Antibacterial activity against methicillin-resistant Staphylococcus aureus NCTC 10442 assessed as reduction in bacterial growth in presence of potassium salt; type: functional
Escherichia coli = experiment: Antibacterial activity against Escherichia coli ATCC25922 assessed as reduction in bacterial growth; type: functional
HEK293 [6] = experiment: Cytotoxicity against human HEK293 cells assessed as reduction in cell viability at 3.125 ug/ml after 24 hrs by CCK8 assay; type: cell-based; settings: hek293, 24 h, at 3.125 µg/mL
Staphylococcus aureus [7] = experiment: Bactericidal activity against Staphylococcus aureus NCTC 10442 assessed as log reduction in bacterial growth at 4X MIC measured within 0.5 hr by time-kill kinetic assay; type: functional; settings: time hrs <=0.5
Staphylococcus aureus [8] = experiment: Antibacterial activity against Staphylococcus aureus ATCC29213 assessed as reduction in bacterial growth in presence of potassium salt; type: functional
Staphylococcus aureus [9] = experiment: Antibacterial activity against methicillin-resistant Staphylococcus aureus N315 assessed as reduction in bacterial growth in presence of sodium salt; type: functional
[10] = Cytotoxicity against mouse NCTC clone 929 cells assessed as reduction in cell viability at 12.5 ug/ml after 24 hrs by CCK8 assay; type: cell-based; settings: nctc clone 929, 24 h, at 12.5 µg/mL
Staphylococcus aureus [11] = experiment: Antibacterial activity against methicillin-resistant Staphylococcus aureus NCTC 10442 assessed as reduction in bacterial growth in presence of calcium salt; type: functional
Staphylococcus aureus [12] = experiment: Antibacterial activity against Staphylococcus aureus ATCC29213 assessed as reduction in bacterial growth in presence of ferric salt; type: functional
Staphylococcus aureus [13] = experiment: Bactericidal activity against Staphylococcus aureus NCTC 10442 assessed as log reduction in bacterial growth at 1X MIC measured within 24 hr by time-kill kinetic assay; type: functional
J774.A1 [14] = experiment: Cytotoxicity against mouse J774.A1 cells assessed as reduction in cell viability at 6.25 ug/ml after 24 hrs by CCK8 assay; type: cell-based; settings: j774.a1, 24 h, at 6.25 µg/mL
Staphylococcus aureus [15] = experiment: Antibacterial activity against methicillin-resistant Staphylococcus aureus N315 assessed as reduction in bacterial growth in presence of magnesium salt; type: functional
Staphylococcus aureus [16] = experiment: Antibacterial activity against methicillin-resistant Staphylococcus aureus NCTC 10442 assessed as reduction in bacterial growth in presence of magnesium salt; type: functional
[17] = Cytotoxicity against mouse NCTC clone 929 cells assessed as reduction in cell viability at 50 ug/ml after 24 hrs by CCK8 assay; type: cell-based; settings: nctc clone 929, 24 h, at 50 µg/mL
HEK293 [18] = experiment: Cytotoxicity against human HEK293 cells assessed as reduction in cell viability at 12.5 ug/ml after 24 hrs by CCK8 assay; type: cell-based; settings: hek293, 24 h, at 12.5 µg/mL
Staphylococcus aureus [19] = experiment: Antibacterial activity against methicillin-resistant Staphylococcus aureus NCTC 10442 assessed as reduction in bacterial growth in presence of sodium salt; type: functional
[20] = Cytotoxicity against mouse NCTC clone 929 cells assessed as reduction in cell viability at 6.25 ug/ml after 24 hrs by CCK8 assay; type: cell-based; settings: nctc clone 929, 24 h, at 6.25 µg/mL
Cell membrane = experiment: Induction of membrane disruption in […] assessed as increase in red fluorescence at 12.48 ug/ml by SYTO 9/PI staining based flourescence microscopy method; type: functional; settings: dose 12.48 µg/ml
Staphylococcus aureus [21] = experiment: Antibacterial activity against Staphylococcus aureus ATCC29213 assessed as reduction in bacterial growth in presence of ferrous salt; type: functional
Staphylococcus aureus [22] = experiment: Induction of drug resistance in Staphylococcus aureus ATCC29213 assessed as reduction in bacterial growth at 0.5 times MIC measured after 24 hr; type: functional, organism-based
J774.A1 [23] = experiment: Cytotoxicity against mouse J774.A1 cells assessed as reduction in cell viability at 50 ug/ml after 24 hrs by CCK8 assay; type: cell-based; settings: j774.a1, 24 h, at 50 µg/mL
Staphylococcus aureus [24] = experiment: Antibacterial activity against methicillin-resistant Staphylococcus aureus N315 assessed as reduction in bacterial growth in presence of calcium salt; type: functional
Staphylococcus aureus [25] = experiment: Antibacterial activity against methicillin-resistant Staphylococcus aureus NCTC 10442 assessed as reduction in bacterial growth in presence of ferrous salt; type: functional
Staphylococcus aureus [26] = experiment: Antibacterial activity against methicillin-resistant Staphylococcus aureus N315 assessed as reduction in bacterial growth in presence of zinc salt; type: functional
Staphylococcus aureus [27] = experiment: Bactericidal activity against Staphylococcus aureus NCTC 10442 assessed as log reduction in bacterial growth at 2X MIC measured within 24 hr by time-kill kinetic assay; type: functional
Staphylococcus aureus [28] = experiment: Antibacterial activity against methicillin-resistant Staphylococcus aureus N315 assessed as reduction in bacterial growth in presence of ferrous salt; type: functional
Staphylococcus aureus [29] = experiment: Antibacterial activity against methicillin-resistant Staphylococcus aureus NCTC 10442 assessed as reduction in bacterial growth in presence of ferric salt; type: functional
Staphylococcus aureus [30] = experiment: Antibacterial activity against Staphylococcus aureus ATCC29213 assessed as reduction in bacterial growth in presence of zinc salt; type: functional
Staphylococcus aureus [31] = experiment: Antibacterial activity against methicillin-resistant Staphylococcus aureus NCTC 10442 assessed as reduction in bacterial growth; type: functional
Staphylococcus aureus [32] = experiment: Antibacterial activity against methicillin-resistant Staphylococcus aureus N315 assessed as reduction in bacterial growth in presence of potassium salt; type: functional
Staphylococcus aureus [33] = experiment: Antibacterial activity against methicillin-resistant Staphylococcus aureus NCTC 10442 assessed as reduction in bacterial growth in presence of zinc salt; type: functional
HEK293 [34] = experiment: Cytotoxicity against human HEK293 cells assessed as reduction in cell viability at 6.25 ug/ml after 24 hrs by CCK8 assay; type: cell-based; settings: hek293, 24 h, at 6.25 µg/mL
[35] = Hemolytic activity in rabbit erythrocytes assessed as concentration required to cause 50% hemolysis; type: ADME, cell-based, Oryctolagus cuniculus, Erythrocyte
HEK293 [36] = experiment: Cytotoxicity against human HEK293 cells assessed as reduction in cell viability at 50 ug/ml after 24 hrs by CCK8 assay; type: cell-based; settings: hek293, 24 h, at 50 µg/mL
Staphylococcus aureus [37] = experiment: Bactericidal activity against Staphylococcus aureus NCTC 10442 assessed as log reduction in bacterial growth at 8X MIC measured within 0.5 hr by time-kill kinetic assay; type: functional
Staphylococcus aureus [38] = experiment: Antibacterial activity against Staphylococcus aureus ATCC29213 assessed as reduction in bacterial growth in presence of calcium salt; type: functional
HEK293 [39] = experiment: Cytotoxicity against human HEK293 cells assessed as reduction in cell viability at 25 ug/ml after 24 hrs by CCK8 assay; type: cell-based; settings: hek293, 24 h, at 25 µg/mL
Staphylococcus aureus [40] = experiment: In vivo antibacterial activity against Staphylococcus aureus ATCC29213 in mouse bacterial keratitis model assessed as log reduction in bacterial load in infected cornea at 0.5%,TOP after 24 hour infection; type: functional, organism-based
J774.A1 [41] = experiment: Cytotoxicity against mouse J774.A1 cells assessed as reduction in cell viability at 3.125 ug/ml after 24 hrs by CCK8 assay; type: cell-based; settings: j774.a1, 24 h, at 3.125 µg/mL
Staphylococcus aureus [42] = experiment: Antibacterial activity against methicillin-resistant Staphylococcus aureus N315 assessed as reduction in bacterial growth; type: functional
Staphylococcus aureus [43] = experiment: Antibacterial activity against Staphylococcus aureus ATCC29213 assessed as reduction in bacterial growth in presence of sodium salt; type: functional
J774.A1 [44] = experiment: Cytotoxicity against mouse J774.A1 cells assessed as reduction in cell viability at 12.5 ug/ml after 24 hrs by CCK8 assay; type: cell-based; settings: j774.a1, 24 h, at 12.5 µg/mL
Staphylococcus aureus [45] = experiment: Antibacterial activity against Staphylococcus aureus ATCC29213 assessed as reduction in bacterial growth in presence of magnesium salt; type: functional
[46] = Cytotoxicity against mouse NCTC clone 929 cells assessed as reduction in cell viability at 25 ug/ml after 24 hrs by CCK8 assay; type: cell-based; settings: nctc clone 929, 24 h, at 25 µg/mL

CC(C)=CCC/C(C)=C/Cn1cc(CC(=O)NCCN(CCNC(=N)N)CCNC(=N)N)c2ccccc21
Activity (J774.A1 [1]): 77.46% | Activity [2]: 87.85% | MIC (Staphylococcus aureus [3]): 1.56 µg/mL (≈ 2.98 µM) | MIC (Staphylococcus aureus [4]): 1.56 µg/mL | MIC (Staphylococcus aureus [5]): 1.56 µg/mL | MIC (Escherichia coli): 12.5 µg/mL (≈ 23.9 µM) | Activity (HEK293 [6]): 94.48% | log reduction (Staphylococcus aureus [7]): 3 log10 CFU/mL | MIC (Staphylococcus aureus [8]): 1.56 µg/mL | MIC (Staphylococcus aureus [9]): 1.56 µg/mL | Activity [10]: 72.66% | MIC (Staphylococcus aureus [11]): 1.56 µg/mL | MIC (Staphylococcus aureus [12]): 1.56 µg/mL | Activity (Staphylococcus aureus [13]): 3 CFU | Activity (J774.A1 [14]): 95.8% | MIC (Staphylococcus aureus [15]): 1.56 µg/mL | MIC (Staphylococcus aureus [16]): 1.56 µg/mL | Activity [17]: 64.79% | Activity (HEK293 [18]): 84.69% | MIC (Staphylococcus aureus [19]): 1.56 µg/mL | Activity [20]: 79.43% | Activity (Cell membrane): Active | MIC (Staphylococcus aureus [21]): 1.56 µg/mL | Activity (Staphylococcus aureus [22]): inactive | Activity (J774.A1 [23]): 56% | MIC (Staphylococcus aureus [24]): 1.56 µg/mL | MIC (Staphylococcus aureus [25]): 1.56 µg/mL | MIC (Staphylococcus aureus [26]): 1.56 µg/mL | Activity (Staphylococcus aureus [27]): 3 CFU | MIC (Staphylococcus aureus [28]): 1.56 µg/mL | MIC (Staphylococcus aureus [29]): 1.56 µg/mL | MIC (Staphylococcus aureus [30]): 1.56 µg/mL | MIC (Staphylococcus aureus [31]): 1.56 µg/mL (≈ 2.98 µM) | MIC (Staphylococcus aureus [32]): 1.56 µg/mL | MIC (Staphylococcus aureus [33]): 1.56 µg/mL | Activity (HEK293 [34]): 92.66% | HC50 [35]: 226 µg/mL | Activity (HEK293 [36]): 68.26% | Activity (Staphylococcus aureus [37]): 3 CFU | MIC (Staphylococcus aureus [38]): 1.56 µg/mL | Activity (HEK293 [39]): 76.79% | Activity (Staphylococcus aureus [40]): Active | Activity (J774.A1 [41]): 100.34% | MIC (Staphylococcus aureus [42]): 1.56 µg/mL (≈ 2.98 µM) | MIC (Staphylococcus aureus [43]): 1.56 µg/mL | Activity (J774.A1 [44]): 85.85% | MIC (Staphylococcus aureus [45]): 1.56 µg/mL | Activity [46]: 71.16%
